Measurements: patent publication US20220334101A1, “MODULATING EXTRACELLULAR MATRIX MOVEMENT” (Helmholtz Zentrum Muenchen - Deutsches Forschungszentrum …, priority 2019, published 2022)
“Also recorded” adds a separate entry of the source. Structures can show the parent of a compound that is named as a salt. Where a SMILES comes first, the peptide text is derived from it.

Key:
liver tissue = test: In vivo effects on ECM movement in the presence of modulators (FIG. 20); conditions: FIG. 20, modulator administered after injury
Procedure: An injury within liver tissue was generated, a potential modulator was administered and ECM movement was monitored.

liver = test: ECM (matrix) movement into liver wounds after electroporation injury, NHS-FITC matrix labelling; assay type: in vivo, mouse; conditions: for recruitment / deposition of fluid matrix after local application: filter paper with 100 nM solution on liver surface for 5 minutes, absence of wounds
peritoneum = test: ECM (matrix) movement into peritoneal wounds after laparotomy injury, NHS-FITC matrix labelling; assay type: in vivo, mouse; conditions: for organ specificity of the effect on matrix currents: livers and peritoneas compared
skin-fascia explants = test: Scar-in-a-dish (SCAD) ex vivo skin-fascia explant assay, screening of Prestwick chemical library; assay type: cell-based, mouse; conditions: molecules of table 1 named as inhibitors of ECM movement
Text: Post born Day 0 (P0) neonates of C57BL/6J wild type mouse were first sacrificed by decapitation. Then dorsal back skin was isolated to make 2 mm full thickness biopsies (0 2 mm, Stiefel) that included the epidermis, dermis and deep subcutaneous fascia layers. The whole skin tissue explant system is termed as scar-in-a-dish (SCAD) assay (Patent Application no. PLA17A13). The SCAD tissue was maintained in DMEM/F12 cell culture medium (Life Technologies) supplemented with 10% FBS (Life Technologies), 1% non-essential amino acid (Thermo Fisher), 1% Glutamax (Thermo Fisher), 1% penicillin and streptomycin (Thermo Fisher) in a 37° C. incubator supplied with […] and 5% CO2. Medium was changed every other day until day 5 when SCADs were collected and fixed for histology analysis. To be noticed, the excised skin was submerged […] in culture media, which confined the scar-prone fibroblasts to the explant and discouraged their adherence to the tissue culture plate.
The PCL provides an additional advantage as all chemicals are of stable physicochemical properties, show a high range of chemical diversity, and are with known bioavailability and safety data in humans. All these information helps to reduce the probability of screening low-quality hits and save the costs of preliminary screening process.
In order to accommodate to medium scale screening approach, the Inventors adapted the SCAD explant system into 96-well plate (Falcon) formats, with each well contained one biopsy. […] Plate and liquid handling were performed using a high-throughput screening platform system composed of a Sciclone G3 Liquid Handler from PerkinElmer (Waltham, Mass., USA). On Day 0 tissues were treated either with the respective compound (1 mM stock solution) dissolved in 100% dimethyl sulfoxide (DMSO, Carl Roth) or DMSO alone. 0.5 μl of compounds/DMSO were transferred with a 96-array head to 200 μl DMEM/F12 medium per well to keep the final DMSO concentrations at […]. Tissues were then incubated (37° C.; 5% CO2) for 72 h prior to a second round of compound treatment, which was performed by exchanging cell culture medium per well and transferring […] of compounds/DMSO into the fresh medium. After an incubation time of another 48 h (37° C.; 5% CO2) the tissues were harvested and fixed for histological processing and imaging.
Briefly, the Inventors excised 2-mm full thickness skin biopsies that included epidermis, dermis, and deep subcutaneous fascia layers from mouse backs (see Methods). Skin-fascia explants were submerged fascia-side up in culture media, to confine scar-prone fibroblasts to the explant and discourage their adherence to the tissue culture plate.
The Prestwick library has selected a diverse array of chemicals with strong physicochemical properties, with known bioavailability and clinical safety data. The library is an ideal place to start screening as it covers all major therapeutic chemical classes such as central nervous system, cardiovascular system, metabolism, and infectious diseases.

fascia fibroblasts = test: Fascia invasion assay (ex vivo fascia 3D Matrigel culture); assay type: cell-based, mouse
Procedure: In order to observe the dynamic changes of fascia fibroblasts, the inventors isolated dorsal skin from P4 to P6 neonates of En1^Cre; R26^mTmG mouse lines. Cre positive neonates from this double transgenic mouse line were detected by green fluorescent signal in dorsal skin with a Leica M205 FA stereo microscope. Matrigel was prepared by diluting the stock aliquots with DMEM/F12 medium to a concentration of 6 mg/ml. Then 150 μl prepared gel was added in the center of a 35 mm cell culture dish (Ibidi). 4 mm biopsies were made from the dorsal skin and fascia tissues were then isolated from the dorsal skin tissues. Isolated fascia tissues were then embedded into the gel and were allowed to be solidified for one hour at 37° C. Then the tissue-gel system was maintained in DMEM/F12 medium (Life Technologies) supplemented with 10% FBS (Life Technologies), 1% non-essential amino acid (Thermo Fisher), 1% Glutamax (Thermo Fisher), 1% penicillin and streptomycin (Thermo Fisher) in a 37° C. incubator supplied with 95% O2 and 5% CO2. Medium was changed every other day until day 4 when tissues were collected and fixed. For fixation with Matrigel system, tissues were fixed in 2% paraformaldehyde (VWR) with 0.1% glutaraldehyde (Sigma) for 1 hour and then washed three times with phosphate buffered saline (PBS, Life Technologies) and stored in PBS at 4° C.
Fascia tissues were recorded everyday by a brightfield microscope to check the invasion and contraction state of the tissues. The invasion index was calculated with the following formula: Invasion index=(SD4−SD0)/SD0
SD4 and SD0 represent tissue size (including the migrated area) on Day 4 and Day 0, respectively. The contraction index was calculated with the following formula: Contraction index=(TD0−TD4)/TD0
TD4 and TD0 represent original tissue size (excluding the migrated area) on Day 4 and Day 0 respectively.
The Inventors isolated fascia from back-skin of En1^Cre; R26^mTmG double-transgenic mice, separately incubated whole fascia explants with 26 small molecules, and measured the invasion index (Si)=(SD4−SD0)/SD0 (see Methods) as a proxy measure of sprouting and reticulation.

[1] = inhibitors 10 μM i.p. 2 hours before surgery, organs harvested after 24 h, FITC in wound lysates

O=C(O)C1(c2ccc3c(c2)OC[C@H](Cc2ccc(-c4ccccc4)cc2)[C@H]3O)CCCC1 [CP-105696] was tested. Which “effect on ECM movement towards the site of injury (phenotype)” value (shortened to “effect on ECM movement towards the site”) (liver tissue) did it give?
The value was “anti-fibrotic phenotype”.

Which results are given for O=CN1CC/C(=C\c2ccc3c(c2)OCO3)C1=O [KNK437]?
ECM (matrix) movement, liver (liver; [1]): decreased; ECM (matrix) movement, peritoneum (peritoneum; [1]): decreased

How did the “recruitment / deposition of fluid matrix after local application” value (shortened to “recruitment / deposition of fluid matrix”) (liver) turn out when CCCCC/C=C\C[C@@H](O)/C=C/C=C/C=C\[C@@H](O)CCCC(=O)O [LTB4] was run?
The value was “forms new deposits of matrix”.

CN(C(=O)c1cc2ccccc2cc1C(=O)C(c1cccc2ccccc12)P(=O)(O)O)C1CCN(C(=O)c2ccccc2)CC1 (stereo not shown) [Cath-G inhibitor] was tested. Which “ECM (matrix) movement, liver” value (liver; [1]) did it give?
The value was “decreased”.

And the “effect on ECM movement towards the site” value (liver tissue)?
The value was “anti-fibrotic phenotypes”.

And the “effect on ECM movement towards the site” value (liver tissue; listed as cathepsin G inhibitors)?
The value was “inhibit ECM movement”.

Which “ECM (matrix) movement, liver” value (liver; [1]) does the source give for COC(=O)CCC(=O)N[C@@H](C)C(=O)N[C@@H](C)C(=O)N1CCC[C@H]1C(=O)N[C@@H](C)C(=O)CCl [elastase inhibitor II] (HELM PEPTIDE1{[COC(=O)CCC(=O)[*:2]].A.A.P.A.[ClC[*:1]]}$$$$V2.0) here?
Its value is “increased”.

What about the “ECM (matrix) movement, peritoneum” value (peritoneum; [1]) of the same compound?
Its value is “increased”.

For O=c1c(O)c(-c2ccc(O)c(O)c2)oc2cc(O)cc(O)c12 [Quercetin], which “ECM (matrix) movement, liver” value (liver; [1]) is on record?
Its value is “decreased”.

And the “ECM (matrix) movement, peritoneum” value (peritoneum; [1])?
The value was “decreased”.

With CCCCC[C@H](O)/C=C/C=C\C=C\C=C\[C@@H](O)[C@@H](O)CCCC(=O)O [Lipoxin A4] as the compound, how does the “recruitment / deposition of fluid matrix” value (liver) read?
Its value is “led to recruitment of fluid matrix”.

What about the “recruitment / deposition of fluid matrix” value (liver; listed as Lipoxin) of the same compound?
Its value is “can be directed with local application”.

How did the “effect on ECM movement towards the site” value (liver tissue) turn out when COC(=O)[C@@H](N)CCCNC(=N)N[N+](=O)[O-] [L-Name] was run?
The value was “anti-fibrotic phenotype”.

What does the source list for CNC(=O)[C@H](Cc1c[nH]c2ccccc12)NC(=O)[C@@H](CC(=O)NO)CC(C)C [GM6001]?
potency among the protease inhibitors on matrix currents (liver; livers and peritoneas): most potent; ECM (matrix) movement, liver (liver; mouse, in vivo, ip): decreased; ECM (matrix) movement, peritoneum (peritoneum; [1]): decreased; effect on ECM movement towards the site of injury (phenotype) (liver tissue): anti-fibrotic phenotypes; also recorded: inhibit ECM movement

Which “ECM (matrix) movement, peritoneum” value (peritoneum; [1]) does the source give for CC(C)C[C@H](NC(=O)[C@@H](O)[C@H](N)Cc1ccccc1)C(=O)O [BESTATIN] here?
Its value is “decreased”.

N#CC(=C(O)c1ccc(Cl)cc1Cl)c1nc2cc(Cl)ccc2c(=O)[nH]1 [Ciliobrevin D] was tested. Which “ECM (matrix) movement, peritoneum” value (peritoneum; [1]) did it give?
The value was “decreased”.

And the “organ specificity of the effect on matrix currents” value (peritoneum)?
The value was “effected matrix currents of only one organ”.

For CCc1cc(C(C)=O)c(O)cc1OCCCCCC(C)(C)c1nn[nH]n1 [LY255283], which “effect on ECM movement towards the site” value (liver tissue) is on record?
Its value is “anti-fibrotic phenotypes; also recorded: inhibit ECM movement”.

Which “phenotype as inhibitor of ECM movement” value (skin-fascia explants) does the source give for CCN(CC)CCc1nc(-c2ccccc2)no1.O=C(O)CC(O)(CC(=O)O)C(=O)O [Oxalamine citrate salt] here?
The value was “anti-fibrotic phenotype”.

Which “phenotype as inhibitor of ECM movement” value (skin-fascia explants) does the source give for Clc1cc(Cl)c(OCC#CI)cc1Cl [Haloprogin] here?
The value was “anti-fibrotic phenotype”.

Which “ECM (matrix) movement, peritoneum” value (peritoneum; [1]) does the source give for O=C1c2ccc([N+](=O)[O-])cc2N=C2N(c3ccccc3)CC[C@@]12O [(S)-nitro-Blebbistatin] here?
Its value is “decreased”.

What about the “organ specificity of the effect on matrix currents” value (peritoneum) of the same compound?
Its value is “effected matrix currents of only one organ”.

How did the “phenotype as inhibitor of ECM movement” value (skin-fascia explants) turn out when CC1(C)O[C@@H]2C[C@H]3[C@@H]4C[C@H](F)C5=CC(=O)C=C[C@]5(C)[C@@]4(F)[C@@H](O)C[C@]3(C)[C@]2(C(=O)CO)O1 [Fluocinolone acetonide] was run?
Its value is “anti-fibrotic phenotype”.

For Nc1ccc(S(=O)(=O)Nc2ccnn2-c2ccccc2)cc1 [Sulfaphenazole], which “phenotype as inhibitor of ECM movement” value (skin-fascia explants) is on record?
The value was “anti-fibrotic phenotype”.

With COC(=O)Nc1nc2ccc(Sc3ccccc3)cc2[nH]1 [Fenbendazole] as the compound, how does the “toxic effects to fascia tissues” value (fascia fibroblasts) read?
Its value is “toxic effects”.

NC(=O)c1cnccn1 [Pyrazinamide] was tested. Which “phenotype as inhibitor of ECM movement” value (skin-fascia explants) did it give?
Its value is “anti-fibrotic phenotype”.

How did the “phenotype as inhibitor of ECM movement” value (skin-fascia explants) turn out when COc1ccc(NS(=O)(=O)c2ccc(N)cc2)nn1 [Sulfamethoxypyridazine] was run?
Its value is “anti-fibrotic phenotype”.

How did the “phenotype as inhibitor of ECM movement” value (skin-fascia explants) turn out when CCCOc1cc(N)ccc1C(=O)OCCN(CC)CC [Propoxycaine hydrochloride] was run?
The value was “anti-fibrotic phenotype”.

How did the “phenotype as inhibitor of ECM movement” value (skin-fascia explants) turn out when CCCCN(CCCC)CCC(O)c1cc2c(Cl)cc(Cl)cc2c2cc(C(F)(F)F)ccc12 (stereo not shown) [Halofantrine hydrochloride] was run?
The value was “anti-fibrotic phenotype”.

For CC[C@H](C)C(=O)O[C@H]1CCC=C2C=C[C@H](C)[C@H](CC[C@@H]3C[C@@H](O)CC(=O)O3)[C@H]21 [Mevastatin], which “phenotype as inhibitor of ECM movement” value (skin-fascia explants) is on record?
The value was “anti-fibrotic phenotype”.

How did the “phenotype as inhibitor of ECM movement” value (skin-fascia explants) turn out when CC(O)(P(=O)(O)O)P(=O)(O)O [Etidronic acid, disodium salt] was run?
The value was “anti-fibrotic phenotype”.

Which “phenotype as inhibitor of ECM movement” value (skin-fascia explants) does the source give for CCN1CC(CCN2CCOCC2)C(c2ccccc2)(c2ccccc2)C1=O (stereo not shown) [Doxapram hydrochloride] here?
The value was “anti-fibrotic phenotype”.

For CCC(C)(C)c1ccc(CC(C)CN2C[C@@H](C)O[C@@H](C)C2)cc1 (stereo partly shown) [Amorolfine hydrochloride], which “phenotype as inhibitor of ECM movement” value (skin-fascia explants) is on record?
The value was “anti-fibrotic phenotype”.

C#C[C@]1(O)CC[C@H]2[C@@H]3CCC4=C(CCC(=O)C4)[C@H]3CC[C@@]21C [Norethynodrel] was tested. Which “phenotype as inhibitor of ECM movement” value (skin-fascia explants) did it give?
Its value is “anti-fibrotic phenotype”.

Which “ECM (matrix) movement, liver” value (liver; [1]) does the source give for CC(C)C[C@H](NC(=O)N[C@H](C(=O)N[C@@H](CCC(N)=O)C(=O)N[C@@H](C)C=O)[C@@H]1CCNC(=N)N1)C(=O)O [Elastatinal] here?
Its value is “increased”.

What about the “ECM (matrix) movement, peritoneum” value (peritoneum; [1]) of the same compound?
The value was “increased”.

And the “effect on ECM movement towards the site” value (liver tissue; listed as Elastial)?
The value was “pro-fibrotic phenotype”.

What about the “effect on ECM movement towards the site” value (liver tissue; listed as elastial) of the same compound?
The value was “promote ECM movement”.

Which “phenotype as inhibitor of ECM movement” value (skin-fascia explants) does the source give for O=C1CC[C@@]2(O)[C@H]3Cc4ccc(O)c5c4[C@@]2(CCN3CC2CC2)[C@H]1O5 [Naltrexone hydrochloride dehydrate, Naltrexone hydrochloride dihydrate] here?
Its value is “anti-fibrotic phenotype”.

With C[C@H](N)[C@H](O)c1ccc(O)c(O)c1 [Levonordefrin] as the compound, how does the “phenotype as inhibitor of ECM movement” value (skin-fascia explants) read?
The value was “anti-fibrotic phenotype”.

With CC(=N)NCc1cccc(CN)c1 [Prestw 1400W, 1400W] as the compound, how does the “effect on ECM movement towards the site” value (liver tissue) read?
Its value is “anti-fibrotic phenotypes”.

What about the “effect on ECM movement towards the site” value (liver tissue; listed as W1400) of the same compound?
The value was “inhibit ECM movement”.

How did the “phenotype as inhibitor of ECM movement” value (skin-fascia explants) turn out when CCC(=O)O[C@]1(C(=O)SCF)[C@H](C)C[C@H]2[C@@H]3C[C@H](F)C4=CC(=O)C=C[C@]4(C)[C@@]3(F)[C@@H](O)C[C@@]21C [Fluticasone propionate] was run?
The value was “anti-fibrotic phenotype”.

What does the source list for N#CCCN [BAPN]?
ECM (matrix) movement, liver (liver; mouse, in vivo, ip): increased; ECM (matrix) movement, peritoneum (peritoneum; mouse, in vivo, ip): increased
